Assay results from ChEMBL document CHEMBL1147100, “Metronidazole plus rifampin sterilizes long-term dormant Mycobacterium tuberculosis” (Antimicrob Agents Chemother, 2007).
Activity calls are given as the source filed them. No cut-off for these calls is given here.

Experiments:
Assay type in all cases: functional, organism-based
[1] = system: Mycobacterium tuberculosis; assay: Bactericidal activity against 12-day old non-replicating Mycobacterium tuberculosis H37Rv in anaerobic condition at 8 ug/ml after 1 day by Wayne dormancy culture model
[2] = system: Mycobacterium tuberculosis; assay: Bactericidal activity against 12-day old non-replicating Mycobacterium tuberculosis H37Rv in anaerobic condition at 8 ug/ml after 4 days by Wayne dormancy culture model
[3] = system: Mycobacterium tuberculosis; assay: Bactericidal activity against 5-day old actively replicating Mycobacterium tuberculosis H37Rv in aerobic condition at 8 ug/ml by Wayne dormancy culture model
[4] = system: Mycobacterium tuberculosis; assay: Bactericidal activity against 26-day old non-replicating Mycobacterium tuberculosis H37Rv in anaerobic condition at 8 ug/ml after 11 days by Wayne dormancy culture model
[5] = system: Mycobacterium tuberculosis; assay: Bactericidal activity against 12-day old non-replicating Mycobacterium tuberculosis H37Rv in anaerobic condition at 8 ug/ml after 11 days by Wayne dormancy culture model
[6] = system: Mycobacterium tuberculosis; assay: Bactericidal activity against 19-day old non-replicating Mycobacterium tuberculosis H37Rv in anaerobic condition at 8 ug/ml after 1 day by Wayne dormancy culture model
[7] = system: Mycobacterium tuberculosis; assay: Bactericidal activity against 19-day old non-replicating Mycobacterium tuberculosis H37Rv in anaerobic condition at 8 ug/ml after 4 days by Wayne dormancy culture model
[8] = system: Mycobacterium tuberculosis; assay: Bactericidal activity against 19-day old non-replicating Mycobacterium tuberculosis H37Rv in anaerobic condition at 8 ug/ml after 11 days by Wayne dormancy culture model
[9] = system: Mycobacterium tuberculosis; assay: Bactericidal activity against 26-day old non-replicating Mycobacterium tuberculosis H37Rv in anaerobic condition at 8 ug/ml after 1 day by Wayne dormancy culture model
[10] = system: Mycobacterium tuberculosis; assay: Bactericidal activity against 26-day old non-replicating Mycobacterium tuberculosis H37Rv in anaerobic condition at 8 ug/ml after 4 days by Wayne dormancy culture model
[11] = system: Mycobacterium tuberculosis; assay: Bactericidal activity against 5-day old actively replicating Mycobacterium tuberculosis H37Rv in aerobic condition at 1 ug/ml after 1 day by Wayne dormancy culture model
[12] = system: Mycobacterium tuberculosis; assay: Bactericidal activity against 5-day old actively replicating Mycobacterium tuberculosis H37Rv in aerobic condition at 1 ug/ml after 4 days by Wayne dormancy culture model
[13] = system: Mycobacterium tuberculosis; assay: Bactericidal activity against 5-day old actively replicating Mycobacterium tuberculosis H37Rv in aerobic condition at 1 ug/ml after 11 days by Wayne dormancy culture model
[14] = system: Mycobacterium tuberculosis; assay: Bactericidal activity against 19-day old non-replicating Mycobacterium tuberculosis H37Rv in anaerobic condition at 1 ug/ml after 1 day by Wayne dormancy culture model
[15] = system: Mycobacterium tuberculosis; assay: Bactericidal activity against 19-day old non-replicating Mycobacterium tuberculosis H37Rv in anaerobic condition at 1 ug/ml after 4 days by Wayne dormancy culture model
[16] = system: Mycobacterium tuberculosis; assay: Bactericidal activity against 19-day old non-replicating Mycobacterium tuberculosis H37Rv in anaerobic condition at 1 ug/ml after 11 days by Wayne dormancy culture model
[17] = system: Mycobacterium tuberculosis; assay: Bactericidal activity against 26-day old non-replicating Mycobacterium tuberculosis H37Rv at 1 ug/ml after 1 day by Wayne in anaerobic condition dormancy culture model
[18] = system: Mycobacterium tuberculosis; assay: Bactericidal activity against 26-day old non-replicating Mycobacterium tuberculosis H37Rv in anaerobic condition at 1 ug/ml after 4 days by Wayne dormancy culture model
[19] = system: Mycobacterium tuberculosis; assay: Bactericidal activity against 26-day old non-replicating Mycobacterium tuberculosis H37Rv in anaerobic condition at 1 ug/ml after 11 days by Wayne dormancy culture model
[20] = system: Mycobacterium tuberculosis; assay: Bactericidal activity against 12-day old non-replicating Mycobacterium tuberculosis H37Rv in anaerobic condition at 1 ug/ml after 1 day by Wayne dormancy culture model
[21] = system: Mycobacterium tuberculosis; assay: Bactericidal activity against 12-day old non-replicating Mycobacterium tuberculosis H37Rv in anaerobic condition at 1 ug/ml after 4 days by Wayne dormancy culture model
[22] = system: Mycobacterium tuberculosis; assay: Bactericidal activity against 12-day old non-replicating Mycobacterium tuberculosis H37Rv in anaerobic condition at 1 ug/ml after 11 days by Wayne dormancy culture model

SMILES: Cc1ncc([N+](=O)[O-])n1CCO
- Activity [1]: Active
- Activity [2]: Active
- Activity [3]: inactive
- Activity [4]: Active
- Activity [5]: Active
- Activity [6]: Active
- Activity [7]: Active
- Activity [8]: Active
- Activity [9]: Active
- Activity [10]: Active

SMILES: CO[C@H]1/C=C/O[C@@]2(C)Oc3c(C)c(O)c4c(O)c(c(/C=N/N5CCN(C)CC5)c(O)c4c3C2=O)NC(=O)/C(C)=C\C=C\[C@H](C)[C@H](O)[C@@H](C)[C@@H](O)[C@@H](C)[C@H](OC(C)=O)[C@@H]1C
- Activity [11]: Active
- Activity [12]: Active
- Activity [13]: Active
- Activity [14]: Active
- Activity [15]: Active
- Activity [16]: Active
- Activity [17]: Active
- Activity [18]: Active
- Activity [19]: Active
- Activity [20]: Active
- Activity [21]: Active
- Activity [22]: Active
